# Patent EP2468279A1, “Prokineticin 1 receptor agonists and their uses” (Université de Strasbourg, priority 2010, dated 2012)
# Tests used:
# Assay type in all cases: cell-based
# PKR1 [1] = biological target: T1, PKR1 (Homo sapiens, UniProt Q8TCW9); assay: PKR1 internalization in CHO-K1 cells transfected with GFP-PKR1, by confocal microscopy; conditions: Figure 6
# T1 construct: expressed in transfected cells; host or cells: CHO-K1 cells, transfected with Lipofectamine2000
# Description: The capacity of agonist compounds to induce internalization of PKR1 was assessed. Therefore, CHO-K1 cells transfected with a plasmid encoding GFP-PKR1 (Green Fluorescent Protein-PKR1), in the presence of Lipofectamine2000 (Invitrogen), were used. Cells were stimulated, 48h after transfection, with or without agonist compound, at 37°C. GFP is a fluorescent protein fusion (26.9 kDa) which has a major excitation peak at a wavelength of 396 nm and a minor one at 472 nm. Its emission peak is at 504 nm which is in the lower green portion of the visible spectrum. Fluorescence allowed tracking the localization of PKR1 after stimulation by the agonist (membrane or subcellular). Cells were seeded in glass-bottom coated with polyL-lysine and receptor studies were performed in the presence of various PKR1-ligands. Samples were observed under a Leica confocal microscope (SP2 AOBS MP) with objective 63× at 37°C. Images were automatically recorded during 20 min, with increasing time intervals to avoid bleaching effects because of repetitive scanning. Reconstituted videos contained 42 images and lasted 2 second.
# PKR1 [2] = biological target: T1, PKR1; assay: Activation of PKR1 signalling pathway: intracellular calcium measured with Fluo 4-AM in CHO-K1 cells infected with adenovirus carrying PKR1 cDNA; conditions: CHO-K1 cells expressing PKR1, Fluo 4-AM fluorescence; Figure 5
# Description: CHO-K1 (Chinese Hamster Ovary) cells were infected with a adenovirus carrying PKR1 cDNA. Cells were then stimulated, 48h after infection, with or without IS1 agonists, at 37°C. Calcium imaging was conducted essentially as previously described (Horinouchi et al., 2007) In brief, Intracellular free calcium [Ca^2+]i was measured with the fluorescent Ca^2+ indicator dye Fluo 4-AM, the membrane-permeant acetoxymethyl ester form of Fluo 4 (Invitrogen). Changes in [Ca^2+]i were determined from variations in the fluorescence intensity of Fluo 4-AM. Briefly, trypsinized CHO-K1-PKR1 cells were seeded onto glass bottom culture dishes (MatTek, MA, USA) for 24 h. […] The fluorescence in the cells was excited at a wavelength of 488 nm and a series of images (total exposure time: 300 s) were acquired at 0.5s intervals at emission wavelength 518 nm. Data are presented as the fluorescence intensity of 3 randomly chosen cells within a randomly selected 40 × field. To evaluate the effect of IS1 compound on [Ca^2+]i in CHO-K-PKR1, the maximum change in fluorescence intensity upon addition of IS1 was measured and normalized to the baseline fluorescence obtained before IS 1 addition.
# endothelial cells (H5V) = assay: Induction of in vitro angiogenesis: tube formation on Growth Factor Reduced Matrigel; conditions: serum free medium, 24h at 37°C, number of branching points, Figures 3 and 4
# Description: Coronary endothelial cells (H5V cells) were maintained in DMEM supplemented with 10% heat inactivated Fetal Calf Serum (FCS), glutamine (1mM) under 5% CO2 at 37°C.
# In order to evaluate the potential angiogenic activity of the PKR1 agonists, the test of Growth Factor Reduced Matrigel (GFR Matrigel) 24 well plate was performed. Matrigel leads to the differentiation of many cell types and induces the formation and organization of endothelial cells into capillary tubules. Twenty-four-well culture plates were coated with Matrigel and endothelial cells (H5V) were trypsin-harvested and seeded onto the coated plates at 10^5 cells per well in the serum free assay medium with PKR1 agonists, IS1 and prokineticin-2, and incubated at 37°C for 24h. Tube formation as two dimensional branched structures were observed using an inverted phase contrast microscope (Zeiss), and the number of branching points were quantified in per well from each sample. Each experiment was repeated at least three times. Images were captured at a magnification of X10 with a digital microscope camera system (Urayama K et al., 2007).
# T1 sequence (Q8TCW9 whole entry): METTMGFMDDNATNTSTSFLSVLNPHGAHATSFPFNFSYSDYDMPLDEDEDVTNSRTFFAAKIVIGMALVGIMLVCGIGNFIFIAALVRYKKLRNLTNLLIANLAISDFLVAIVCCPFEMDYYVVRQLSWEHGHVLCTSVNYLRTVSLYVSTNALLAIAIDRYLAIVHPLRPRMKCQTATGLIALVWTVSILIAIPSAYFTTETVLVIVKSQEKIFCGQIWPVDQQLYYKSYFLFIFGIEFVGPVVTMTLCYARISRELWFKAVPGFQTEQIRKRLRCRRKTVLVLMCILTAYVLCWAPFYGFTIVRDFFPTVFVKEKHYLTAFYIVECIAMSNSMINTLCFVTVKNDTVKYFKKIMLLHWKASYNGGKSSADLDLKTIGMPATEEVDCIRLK
smiles,measurement,setting,value
O=C(NCc1cccnc1)C(=Cc1ccco1)NC(=O)c1ccccc1 [IS1],PKR1 internalization,"PKR1 [1]; CHO cells GFP-PKR1, 48h after transfection, 37°C",induces its internalization
same,specificity of interaction with PKR1,PKR1 [1]; CHO cells GFP-PKR1,specifically interacts with PKR1
same,activation of the PKR1 signalling pathway (intracellular calcium release),PKR1 [2],able to activate the PKR1 signalling pathway
same,in vitro angiogenesis (tube-like formation of the endothelial cells on Matrigel),endothelial cells (H5V),Induction of in vitro angiogenesis
